Measurements reported in ChEMBL document CHEMBL1201862, “PubChem BioAssay data set” (2004).
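1) Cells in 96-well plates. 2) Compound, 48 h, 5 concentrations. 3) Linear interpolation between surrounding doses. 4) Unreached endpoint = highest concentration. GI50: concentration for 50% inhibition of growth.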 Activity calls are given as the source filed them. No stated cut-off is given here; in the data, active = GI50 up to about 1.1 µM and inactive = higher.

Columns and labels:
Assay in all cases: NCI anticancer screen, dose series, 48 h
DMS-273 = tested on: DMS-273
HOP-18 = tested on: HOP-18
KM-20L2 = tested on: KM-20L2
M19-MEL = tested on: M19-MEL
SNB-78 = tested on: SNB-78
Hs-578T = tested on: Hs-578T
T47D = tested on: T47D

| Compound | GI50 (Hs-578T) | GI50 (T47D) | further results |
| --- | --- | --- | --- |
| N/N=c1\c2ccccc2c2ccc3c4ccccc4/c(=N\N)c3c12 | – | – | GI50 (DMS-273): > 100 µM (inactive); GI50 (HOP-18): > 100 µM (inactive); GI50 (KM-20L2): > 100 µM (inactive); GI50 (M19-MEL): > 100 µM (inactive); GI50 (SNB-78): > 100 µM (inactive) |
| CC(C)(C)[Si](C)(C)O[C@@H](C(=O)OC1C=CCCC1)[C@@H](NC(=O)c1ccccc1)c1ccccc1 (stereo partly specified) | 53.6 µM (inactive) | 20 µM (inactive) | – |
| S=C1C=C(c2ccccc2)Sc2ccccc2N1 | 19.5 µM (inactive) | > 100 µM (inactive) | – |
| CN(CCCN=C=S)CCCN1c2ccccc2CCc2ccccc21 | 2.04 µM (inactive) | 2.07 µM (inactive) | – |
| O=C(CC(O)c1cccnc1)CC(O)c1cccnc1 (stereo unspecified) | 28.4 µM (inactive) | 26.5 µM (inactive) | – |
| C/C(=N/O)c1cccc(Nc2nc3ccccc3c3[nH]c4ccccc4c23)c1 | 3.24 µM (inactive) | 1.52 µM (inactive) | – |
| C=CCOc1ccc(C2c3c(n[nH]c3O)CC(C)(O)C2C(=O)OC)cc1OC (stereo unspecified) | > 100 µM (inactive) | > 100 µM (inactive) | – |
| CC1(C)OCC=CCO1 | > 100 µM (inactive) | > 100 µM (inactive) | – |
| CC(C)(C)OC(=O)NCCC(=O)NC1(c2cc3ccccc3s2)CCCCC1 | 28.1 µM (inactive) | 8.05 µM (inactive) | – |
| CCOC(=O)c1cc(-c2ccc(OC)c(OC)c2)cn1C | 7.03 µM (inactive) | > 10 µM (inactive) | – |
| COc1ccc(C2C(Cl)C(=O)N2NC(=O)c2ccc(NC(C)=O)cc2)cc1OC (stereo unspecified) | – | – | GI50 (HOP-18): > 100 µM (inactive); GI50 (M19-MEL): > 100 µM (inactive) |
| CC(C)/C(Cl)=N\OC(=O)Nc1ccc(C#N)cc1 | 15.1 µM (inactive) | 5.77 µM (inactive) | – |
| Cc1ccc(N2C(=O)N(c3ccc(C)cc3)C3(SC=NN3C)C2=O)cc1 (stereo unspecified) | – | – | GI50 (HOP-18): > 100 µM (inactive); GI50 (KM-20L2): 44 µM (inactive); GI50 (M19-MEL): 72.6 µM (inactive); GI50 (SNB-78): > 100 µM (inactive) |
| COc1cc(/C=C2\C[C@H]3[C@@H]4CCc5cc(O)ccc5[C@H]4CC[C@]3(C)C2=O)cc(OC)c1OC | – | 13.5 µM (inactive) | – |
| Cc1n[nH]c(=O)n1N=C(c1ccccc1)c1ccccc1 | > 100 µM (inactive) | – | – |
| N#Cc1c2c(c(Nc3ccc(F)cc3)n3c1nc1ccccc13)CCCC2 | 36.9 µM (inactive) | 6.64 µM (inactive) | – |
| Nc1c(-c2ccccc2[N+](=O)[O-])nc2ccccn12 | – | – | GI50 (DMS-273): > 100 µM (inactive); GI50 (KM-20L2): > 100 µM (inactive); GI50 (M19-MEL): > 100 µM (inactive) |
| Cc1ccc(NC(=O)c2cc3ccccc3c(/N=N/c3cc(S(=O)(=O)O)ccc3O)c2O)c(C)c1 | 31.6 µM (inactive) | 24.7 µM (inactive) | – |
| Cc1cc2c(cc1C)[n+]([O-])c(C(=O)N1CCN(c3ccc([N+](=O)[O-])cc3)CC1)c(C)[n+]2[O-] | 96.2 µM (inactive) | 63.2 µM (inactive) | – |
| O=c1c2cc([N+](=O)[O-])ccc2nc2n1CCCCC2 | 43.3 µM (inactive) | > 100 µM (inactive) | – |
| COC(=O)C(CCCCNC(=O)CNC(=O)OCc1ccccc1)NC(=O)C(CCCCNC(=O)CNC(=O)OCc1ccccc1)NC(=O)OCc1ccccc1 (stereo unspecified) | – | 20.3 µM (inactive) | – |
| NS(=O)(=O)c1ccc(NNc2c3ccccc3nc3c(C(=O)Nc4ccc(S(N)(=O)=O)cc4)cccc23)cc1 | 19.1 µM (inactive) | 6.27 µM (inactive) | – |
| COc1ccc(NC(C)=O)cc1N1C(=O)/C(=C\c2cc(OC)c(OC)c(OC)c2)S(=O)(=O)C1c1ccccc1 (stereo unspecified) | – | 38.3 µM (inactive) | – |
| O=C1OCc2c1cc1cc3c(cc1c2-c1ccc2c(c1)OCO2)OCO3.O=C1OCc2cc3cc4c(cc3c(-c3ccc5c(c3)OCO5)c21)OCO4 | 14.5 µM (inactive) | 24.5 µM (inactive) | – |
| CC12C(=O)OC(=O)C1(C)C1C=CC2O1 (stereo unspecified) | 29.1 µM (inactive) | – | – |
| COc1cc(C2c3cc4c(cc3[C@@H](Nc3ccc(F)cc3)C3COC[C@H]23)OCO4)cc(OC)c1O (stereo partly specified) | 0.589 µM (active) | 1.74 µM (inactive) | – |

| Compound | GI50 (Hs-578T) | GI50 (T47D) | further results |
| --- | --- | --- | --- |
| CC1(C)CCSC(/C=C/c2ccccc2)=N1 | 43.4 µM (inactive) | – | – |
| O=C1CC(C(COCc2ccccc2)OCc2ccccc2)CC(=O)N1 (stereo unspecified) | > 100 µM (inactive) | 86.3 µM (inactive) | – |
| COc1ccc2nc3cc([N+](=O)[O-])ccc3c(Nc3ccc(S(=O)(=O)Nc4ncccn4)cc3)c2c1 | 12.4 µM (inactive) | > 100 µM (inactive) | – |
| COc1cc2c(cc1OC)C1=C(C=O)c3ccc(OC)c(OC)c3C(O)N1CC2 (stereo unspecified) | 23.9 µM (inactive) | 21.1 µM (inactive) | – |
| N=C(N)SCCN1CCCCC1 | 11.7 µM (inactive) | 27.5 µM (inactive) | – |
| O=C1NC(=S)NC(=O)C1=Cc1ccc(-c2ccccc2)cc1 | 79.4 µM (inactive) | > 100 µM (inactive) | – |
| O=C1/C(=C/c2ccc(Cl)cc2)Sc2scc(-c3cccc([N+](=O)[O-])c3)[n+]21 | 5.48 µM (inactive) | 3.5 µM (inactive) | – |
| CC[C@@H]1ON(C)[C@H]2CN(C)C(=O)[C@@H]12 | > 100 µM (inactive) | > 100 µM (inactive) | – |
| COc1cc2cc(C(=O)N3C[C@@H](CCl)c4c3cc(N)c3ccccc43)[nH]c2c(OC)c1OC | 0.00738 µM (active) | 0.00104 µM (active) | – |
| CN1C(=O)C2(C)SC1(c1ccccc1)C1C(=O)N(c3ccccc3)C(=O)C12 (stereo unspecified) | > 100 µM (inactive) | 52.2 µM (inactive) | – |
| CN1CCC2(CC1)SC[C@H]1C(=O)N(c3ccc(Cl)cc3)C(=O)N12 | > 100 µM (inactive) | > 100 µM (inactive) | – |
| CC(C)n1c(=O)n(-c2ccccc2)n(C(C)(C)C)c1=O | > 100 µM (inactive) | – | – |
| CC(C)(C)[Si](C)(C)OC1(CCc2ccccc2OS(=O)(=O)C(F)(F)F)CCCC=C1COCc1ccccc1 (stereo unspecified) | – | 6.35 µM (inactive) | – |
| Cc1ccc(-c2cc(=O)c(=O)[nH][nH]2)cc1 | 68.4 µM (inactive) | > 100 µM (inactive) | – |
| CN1C2CCC1CC(CCNC(c1ccccc1)c1ccccc1)C2 (stereo unspecified) | 29.9 µM (inactive) | 25.5 µM (inactive) | – |
| Cn1c2ccccc2c2c3c(c4c5ccccc5n(C)c4c21)C(=O)c1ccccc1C3=O | – | 13.2 µM (inactive) | – |
| Cc1ccc(/C=C/C(=O)c2cc(CN(C)C)c(O)c(CN(C)C)c2)cc1 | 29.8 µM (inactive) | 18 µM (inactive) | – |
| CC1(CO)OC(n2cnc3cncnc32)CC1O (stereo unspecified) | – | > 100 µM (inactive) | – |
| Clc1ccc(Cc2nc3cc(Cl)c(Cl)cc3n2CC2CCCN3CCCCC23)cc1Cl (stereo unspecified) | 3.4 µM (inactive) | 7.29 µM (inactive) | – |
| C=C1C[C@@H]2CC[C@@]34CC5O[C@H]6C(O[C@H]7CC[C@H](CC(=O)O[C@@H]8[C@@H](C)[C@@H]9O[C@@H]%10C[C@]%11(C[C@@H]%12O[C@]%13(C[C@H](C)[C@@H]%14O[C@@H]%15CC(C(COC(C)=O)OC(C)=O)O[C@@H]%15C[C@@H]%14O%13)C[C@H](C)[C@@H]%12O%11)O[C@@H]%10C[C@@H]9O[C@H]8CC8O[C@@H](CC[C@@H]1O2)C[C@@H](C)C8(O)CO)O[C@@H]7[C@@H]6O3)[C@H]5O4 (stereo partly specified) | 0.272 µM (active) | > 0.451 µM (active) | – |
| N=C(N)N/N=C/c1c(-c2ccc(Cl)c([N+](=O)[O-])c2)nc2sc(Cl)cn12 | 2.33 µM (inactive) | 1.23 µM (inactive) | – |
| C#CC1(O)C(COP(=O)(O)OC(COCCCCCCCCCCCCCCCCCC)COP(=O)(O)OCC2OC(n3cc(C)c(=O)[nH]c3=O)CC2N=[N+]=[N-])OC(n2ccc(N)nc2=O)C1O (stereo unspecified) | 5.4 µM (inactive) | 3.73 µM (inactive) | – |
| O=C(COc1ccc(OCC(=O)NNC2=NC(c3cc(F)c(Cl)cc3Cl)CS2)c(Cl)c1)NNC1=NC(c2cc(F)c(Cl)cc2Cl)CS1 (stereo unspecified) | 20.6 µM (inactive) | – | – |
| COC(=O)/C(C#N)=C(\N)c1c(C)c2ccccc2oc1=N | > 100 µM (inactive) | > 100 µM (inactive) | – |
| CC(C)(C)OC(=O)N1CCC(NC(=O)NC2CCN(C(=O)OC(C)(C)C)CC2)CC1 | > 100 µM (inactive) | – | – |
